Experimental data taken from ChEMBL document CHEMBL3593193, “Discovery of 3,6-dihydroimidazo[4,5-d]pyrrolo[2,3-b]pyridin-2(1H)-one derivatives as novel JAK inhibitors” (Bioorg Med Chem, 2015).
pIC50: −log10 of the molar value.

Legend:
[1] = cells; conditions: Rattus norvegicus, Lewis, T-cell, 72 h
Description: Inhibition of JAK1/JAK3 in Lewis rat splenocytes assessed as reduction in IL2-induced T cell proliferation incubated for 3 days by alamar blue assay

[2] = target: Tyrosine-protein kinase JAK1 (Homo sapiens, UniProt P23458)
Description: Inhibition of human JAK1 kinase domain using biotin-Lyn-substrate-2 as substrate and ATP incubated for 1 hr by ELISA method

[3] = target: T1, Tyrosine-protein kinase JAK3 (Homo sapiens, UniProt P52333)
T1 sequence (P52333 whole entry): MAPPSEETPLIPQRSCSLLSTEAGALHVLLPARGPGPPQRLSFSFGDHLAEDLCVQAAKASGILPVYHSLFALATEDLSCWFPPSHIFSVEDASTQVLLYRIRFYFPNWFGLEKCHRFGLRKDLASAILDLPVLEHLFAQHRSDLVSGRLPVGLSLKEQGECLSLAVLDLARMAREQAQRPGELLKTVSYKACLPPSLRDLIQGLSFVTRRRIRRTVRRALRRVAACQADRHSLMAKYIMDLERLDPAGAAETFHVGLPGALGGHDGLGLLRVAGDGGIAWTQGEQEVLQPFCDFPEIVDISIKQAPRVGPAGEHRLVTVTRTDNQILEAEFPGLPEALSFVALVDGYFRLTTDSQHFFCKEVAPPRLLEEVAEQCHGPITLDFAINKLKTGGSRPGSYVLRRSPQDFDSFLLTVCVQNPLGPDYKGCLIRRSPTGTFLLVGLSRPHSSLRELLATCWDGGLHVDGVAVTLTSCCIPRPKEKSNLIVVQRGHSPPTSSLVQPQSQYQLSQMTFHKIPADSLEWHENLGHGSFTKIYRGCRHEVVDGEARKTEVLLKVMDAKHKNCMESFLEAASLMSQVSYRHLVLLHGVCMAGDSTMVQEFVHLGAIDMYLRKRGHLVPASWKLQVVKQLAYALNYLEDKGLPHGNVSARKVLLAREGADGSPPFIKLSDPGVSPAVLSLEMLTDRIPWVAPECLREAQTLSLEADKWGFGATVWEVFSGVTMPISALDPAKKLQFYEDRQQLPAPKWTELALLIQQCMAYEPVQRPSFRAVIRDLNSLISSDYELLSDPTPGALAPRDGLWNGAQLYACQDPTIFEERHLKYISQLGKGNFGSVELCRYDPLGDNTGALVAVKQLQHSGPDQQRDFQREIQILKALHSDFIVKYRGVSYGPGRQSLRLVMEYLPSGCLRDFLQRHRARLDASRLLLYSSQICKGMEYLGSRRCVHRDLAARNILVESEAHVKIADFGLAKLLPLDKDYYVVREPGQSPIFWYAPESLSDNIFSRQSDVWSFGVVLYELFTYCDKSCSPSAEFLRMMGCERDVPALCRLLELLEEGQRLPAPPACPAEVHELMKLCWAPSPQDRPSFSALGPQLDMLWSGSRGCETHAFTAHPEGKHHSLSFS
Description: Inhibition of human JAK3 kinase domain using biotin-Lyn-substrate-2 as substrate and ATP incubated for 1 hr by ELISA method

[4] = target: Tyrosine-protein kinase JAK2 (Homo sapiens, UniProt O60674)
Description: Inhibition of human JAK2 kinase domain using biotin-Lyn-substrate-2 as substrate and ATP incubated for 1 hr by ELISA method

[5] = in vitro; conditions: Sprague-Dawley, rat, liver microsomes
[6] = target: T2, CYP3A4 (Homo sapiens, UniProt P08684); assay: Time dependent inhibition of CYP3A4 in human liver microsomes assessed as remaining enzyme activity by measuring midazolam to 1'-hydroxymidazolam conversion at 5 uM pre-incubated for 30 mins before midazolam addition by LC-MS/MS method; assay type: ADME; conditions: probe midazolam (conversion to 1'-hydroxymidazolam), read-out: Activity
[7] = target: T2, CYP3A4; assay: Reversible inhibition of CYP3A4 in human liver microsomes assessed as remaining enzyme activity by measuring midazolam to 1'-hydroxymidazolam conversion at 5 uM pre-incubated for 30 mins before midazolam addition by LC-MS/MS method; assay type: ADME; conditions: probe midazolam (conversion to 1'-hydroxymidazolam), read-out: Activity
[8] = tested on: Liver microsome; conditions: rat, microsomes, 0.5 h, 2 µM

Tyrosine-protein kinase JAK2, sequence (O60674 whole entry): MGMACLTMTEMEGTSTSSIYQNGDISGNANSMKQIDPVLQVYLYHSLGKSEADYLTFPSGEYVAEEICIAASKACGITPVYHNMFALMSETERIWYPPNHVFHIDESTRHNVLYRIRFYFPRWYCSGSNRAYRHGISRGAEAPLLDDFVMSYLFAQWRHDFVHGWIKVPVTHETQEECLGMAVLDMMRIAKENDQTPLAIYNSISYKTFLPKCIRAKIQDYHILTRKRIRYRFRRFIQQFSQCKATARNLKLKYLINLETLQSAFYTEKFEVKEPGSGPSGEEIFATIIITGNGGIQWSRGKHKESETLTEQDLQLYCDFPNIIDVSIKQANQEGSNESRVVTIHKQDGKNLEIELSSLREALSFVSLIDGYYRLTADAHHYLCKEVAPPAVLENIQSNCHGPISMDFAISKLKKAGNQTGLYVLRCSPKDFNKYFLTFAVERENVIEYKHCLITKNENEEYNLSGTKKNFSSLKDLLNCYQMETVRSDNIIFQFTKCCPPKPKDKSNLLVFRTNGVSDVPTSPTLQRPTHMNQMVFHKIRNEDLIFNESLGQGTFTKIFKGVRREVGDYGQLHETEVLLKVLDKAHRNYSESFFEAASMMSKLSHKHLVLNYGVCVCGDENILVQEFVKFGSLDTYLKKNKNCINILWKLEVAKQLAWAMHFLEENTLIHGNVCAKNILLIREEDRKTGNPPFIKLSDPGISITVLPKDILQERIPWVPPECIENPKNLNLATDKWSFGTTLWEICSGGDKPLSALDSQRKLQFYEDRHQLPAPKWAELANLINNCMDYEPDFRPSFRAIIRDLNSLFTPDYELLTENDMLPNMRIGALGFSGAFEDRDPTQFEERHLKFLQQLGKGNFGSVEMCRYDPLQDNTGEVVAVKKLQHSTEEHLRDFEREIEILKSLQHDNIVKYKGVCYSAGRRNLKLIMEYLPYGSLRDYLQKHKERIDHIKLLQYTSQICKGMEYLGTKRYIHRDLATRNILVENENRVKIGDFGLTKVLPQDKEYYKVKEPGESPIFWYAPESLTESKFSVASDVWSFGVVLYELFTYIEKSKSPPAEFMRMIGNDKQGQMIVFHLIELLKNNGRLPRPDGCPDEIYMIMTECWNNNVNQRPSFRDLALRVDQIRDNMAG
T2 sequence (P08684 whole entry): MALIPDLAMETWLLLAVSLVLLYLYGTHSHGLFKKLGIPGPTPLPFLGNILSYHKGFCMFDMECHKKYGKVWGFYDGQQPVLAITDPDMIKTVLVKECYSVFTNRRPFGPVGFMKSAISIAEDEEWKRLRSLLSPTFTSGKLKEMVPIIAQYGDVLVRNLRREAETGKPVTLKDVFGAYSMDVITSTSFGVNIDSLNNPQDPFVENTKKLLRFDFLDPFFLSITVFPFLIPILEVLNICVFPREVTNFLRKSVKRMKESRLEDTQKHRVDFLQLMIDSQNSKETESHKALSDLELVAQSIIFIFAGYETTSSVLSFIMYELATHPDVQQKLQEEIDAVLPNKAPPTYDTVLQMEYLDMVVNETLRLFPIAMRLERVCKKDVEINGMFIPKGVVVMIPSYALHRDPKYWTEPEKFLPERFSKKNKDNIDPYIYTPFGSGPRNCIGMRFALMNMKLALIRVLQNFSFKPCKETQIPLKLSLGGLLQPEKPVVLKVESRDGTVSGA
Tyrosine-protein kinase JAK1, sequence (P23458 whole entry): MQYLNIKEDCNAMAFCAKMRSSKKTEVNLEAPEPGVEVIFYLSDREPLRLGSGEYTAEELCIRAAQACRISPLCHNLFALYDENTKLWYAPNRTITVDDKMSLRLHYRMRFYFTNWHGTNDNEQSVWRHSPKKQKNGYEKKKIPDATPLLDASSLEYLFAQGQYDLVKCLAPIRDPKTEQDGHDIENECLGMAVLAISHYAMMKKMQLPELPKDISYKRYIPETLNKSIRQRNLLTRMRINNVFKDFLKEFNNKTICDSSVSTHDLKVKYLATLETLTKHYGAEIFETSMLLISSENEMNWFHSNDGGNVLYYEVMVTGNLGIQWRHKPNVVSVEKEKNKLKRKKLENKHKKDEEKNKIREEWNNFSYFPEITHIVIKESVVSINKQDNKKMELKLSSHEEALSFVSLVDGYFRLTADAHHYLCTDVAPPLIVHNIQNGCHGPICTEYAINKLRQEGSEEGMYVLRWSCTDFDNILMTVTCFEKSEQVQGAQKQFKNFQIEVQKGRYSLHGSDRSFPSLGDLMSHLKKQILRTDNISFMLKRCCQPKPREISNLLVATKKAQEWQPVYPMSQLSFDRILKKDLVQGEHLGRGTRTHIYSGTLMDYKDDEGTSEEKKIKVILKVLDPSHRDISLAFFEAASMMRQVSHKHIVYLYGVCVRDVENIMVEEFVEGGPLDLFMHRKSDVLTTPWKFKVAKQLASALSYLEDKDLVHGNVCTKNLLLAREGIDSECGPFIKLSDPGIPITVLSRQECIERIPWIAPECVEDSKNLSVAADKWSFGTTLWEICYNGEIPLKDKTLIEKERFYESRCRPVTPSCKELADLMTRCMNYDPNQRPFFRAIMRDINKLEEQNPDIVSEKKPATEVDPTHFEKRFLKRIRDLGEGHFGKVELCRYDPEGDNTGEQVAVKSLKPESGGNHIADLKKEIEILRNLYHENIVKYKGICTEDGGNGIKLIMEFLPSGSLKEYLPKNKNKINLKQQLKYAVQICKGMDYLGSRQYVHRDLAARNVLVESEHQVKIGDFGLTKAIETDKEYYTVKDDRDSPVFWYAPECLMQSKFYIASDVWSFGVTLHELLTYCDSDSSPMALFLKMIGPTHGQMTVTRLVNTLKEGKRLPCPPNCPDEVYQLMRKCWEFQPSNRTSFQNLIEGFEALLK

| pIC50 [1] | pIC50 [2] | pIC50 [3] | pIC50 [4] | CLint scaled at 0.5 h, 2 µM [5] | activity at 30 min, 5 µM [6] | activity at 30 min, 5 µM [7] | CLH [8] | Structure (SMILES) |
| --- | --- | --- | --- | --- | --- | --- | --- | --- |
| 6.80 | 7.54 | 8.30 | 8.14 |  |  |  |  | C[C@@H]1CCN(C(=O)CC#N)C[C@@H]1n1c(=O)n(C)c2cnc3[nH]ccc3c21 (racemic) |
| 6.80 | 7.10 | 7.27 | 7.37 | 153 mL/min/kg |  |  |  | O=c1[nH]c2cnc3[nH]ccc3c2n1C1CCCCC1 |
| 6.96 | 7.55 | 7.57 | 7.77 |  |  |  |  | C[C@H]1CCCC[C@H]1n1c(=O)[nH]c2cnc3[nH]ccc3c21 |
| 6.96 | 7.05 | 7.16 | 7.07 |  |  |  |  | CC1(C)CCCCC1n1c(=O)[nH]c2cnc3[nH]ccc3c21 (centres undefined) |
| 7.13 | 7.52 | 7.66 | 7.64 | 272 mL/min/kg |  |  |  | O=c1[nH]c2cnc3[nH]ccc3c2n1C1CCCCCC1 |
| 5.55 |  | 5.92 | 5.89 |  |  |  |  | O=c1[nH]c2cnc3[nH]ccc3c2n1C1CCNCC1 |
| 6.00 | 6.37 | 7.68 | 7.64 |  |  |  |  | CC1CCCC(n2c(=O)[nH]c3cnc4[nH]ccc4c32)C1 (centres undefined) |
|  | 5.54 | 5.96 | 5.74 |  |  |  |  | CN(c1ccnc2[nH]ccc12)C1CCCCC1 |
| 7.49 | 7.85 |  | 8.36 | 300 mL/min/kg | 49% | 95% |  | C[C@@H]1CCCC[C@@H]1n1c(=O)[nH]c2cnc3[nH]ccc3c21 |
|  | 6.96 | 6.74 | 7.01 |  |  |  |  | O=c1[nH]c2cnc3[nH]ccc3c2n1C1CCCC1 |
| 5.77 | 6.64 | 7.20 | 7.09 |  |  |  |  | CS(=O)(=O)N1CCC[C@@H](n2c(=O)[nH]c3cnc4[nH]ccc4c32)C1 |
| 6.07 | 6.00 | 7.22 | 7.06 | 802 mL/min/kg |  |  |  | O=c1[nH]c2cnc3[nH]ccc3c2n1CC1CCCCC1 |
|  | 6.85 | 6.15 | 6.85 |  |  |  |  | CS(=O)(=O)N1CCC(n2c(=O)[nH]c3cnc4[nH]ccc4c32)CC1 |
|  |  | 6.34 | 6.07 |  |  |  |  | CS(=O)(=O)N1CCC[C@H](n2c(=O)[nH]c3cnc4[nH]ccc4c32)C1 |
| 7.44 | 7.74 | 8.52 | 8.44 | > 1000 mL/min/kg |  |  |  | CC[C@@H]1CCCC[C@@H]1n1c(=O)[nH]c2cnc3[nH]ccc3c21 |
| 7.44 | 8.82 | 8.96 | 8.59 |  | 86% |  | Stable | C[C@@H]1CCN(C(=O)CC#N)C[C@@H]1n1c(=O)[nH]c2cnc3[nH]ccc3c21 (racemic) |
| 5.85 | 6.28 | 6.57 |  |  | 90% |  | Stable | O=c1[nH]c2cnc3[nH]ccc3c2n1C1CCOCC1 |
| 6.51 | 7.70 | 7.55 | 7.77 |  |  |  |  | N#CCC(=O)N1CCC[C@@H](n2c(=O)[nH]c3cnc4[nH]ccc4c32)C1 |
| 6.92 | 7.62 | 7.38 | 7.64 |  |  |  |  | CC1CCC(n2c(=O)[nH]c3cnc4[nH]ccc4c32)CC1 (centres undefined) |
